According to ChEMBL document CHEMBL5390243, “Catecholamine Derivatives: Natural Occurrence, Structural Diversity, and Biological Activity” (J Nat Prod, 2023):

Experiments:
[1] = target: Delta-type opioid receptor (Homo sapiens, UniProt P41143); experiment: Binding affinity to DOR (unknown origin) assessed as inhibition constant
[2] = target: Casein kinase I isoform delta (Homo sapiens, UniProt P48730); experiment: Inhibition of N-terminal GST-tagged human recombinant CK1delta (1 to 294 residues) expressed in Escherichia coli incubated for 60 mins in presence of ATP by Kinase-glo luminescent assay
Chain of Casein kinase I isoform delta (P48730 whole entry, the tested form may be a part, canonical isoform): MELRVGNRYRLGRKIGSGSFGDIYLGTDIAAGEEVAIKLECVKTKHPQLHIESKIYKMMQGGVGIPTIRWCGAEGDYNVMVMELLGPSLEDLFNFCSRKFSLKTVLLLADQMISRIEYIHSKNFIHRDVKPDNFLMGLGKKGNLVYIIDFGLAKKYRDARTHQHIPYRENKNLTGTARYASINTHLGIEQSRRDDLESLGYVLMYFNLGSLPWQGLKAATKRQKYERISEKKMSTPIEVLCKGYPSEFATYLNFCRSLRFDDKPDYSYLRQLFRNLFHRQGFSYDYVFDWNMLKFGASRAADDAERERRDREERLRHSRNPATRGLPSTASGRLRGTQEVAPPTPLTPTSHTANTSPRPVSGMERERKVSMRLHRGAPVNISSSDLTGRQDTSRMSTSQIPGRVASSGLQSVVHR

Bacillus subtilis [3] = experiment: Antibacterial activity against Bacillus subtilis ATCC 6633 assessed as reduction in bacterial growth incubated for 18 to 24 hrs by broth microdilution method; type: functional, organism-based
[4] = target: Cyclin-dependent kinase 5/CDK5 activator 1 (Homo sapiens, UniProt Q00535); experiment: Inhibition of N-terminal full length human recombinant CDK5/p25 expressed in baculovirus-infected Sf21 cells incubated for 60 mins in presence of ATP by kinase-glo luminescent assay
Chain of Cyclin-dependent kinase 5/CDK5 activator 1 (Q00535 whole entry): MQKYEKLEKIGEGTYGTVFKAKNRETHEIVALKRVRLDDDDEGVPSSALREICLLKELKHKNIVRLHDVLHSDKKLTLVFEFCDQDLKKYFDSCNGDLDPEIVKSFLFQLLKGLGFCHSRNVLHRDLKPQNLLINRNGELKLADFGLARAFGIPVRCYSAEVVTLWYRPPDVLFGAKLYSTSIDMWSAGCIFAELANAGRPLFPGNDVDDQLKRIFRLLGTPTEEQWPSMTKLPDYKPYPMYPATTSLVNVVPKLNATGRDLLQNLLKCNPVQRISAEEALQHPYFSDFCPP
Chain of Cyclin-dependent kinase 5/CDK5 activator 1 (Q15078 whole entry, further chain): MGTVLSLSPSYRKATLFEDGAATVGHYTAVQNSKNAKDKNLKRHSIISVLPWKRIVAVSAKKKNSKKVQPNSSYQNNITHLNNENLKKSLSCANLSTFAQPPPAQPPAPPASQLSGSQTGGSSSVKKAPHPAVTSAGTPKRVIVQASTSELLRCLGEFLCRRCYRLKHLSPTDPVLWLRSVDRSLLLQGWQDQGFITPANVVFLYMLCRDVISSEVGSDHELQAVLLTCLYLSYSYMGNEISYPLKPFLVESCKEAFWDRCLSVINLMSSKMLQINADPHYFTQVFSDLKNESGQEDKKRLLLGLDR

Bacillus subtilis [5] = experiment: Antibacterial activity against Bacillus subtilis ATCC 6051 assessed as reduction in bacterial growth incubated for 18 to 24 hrs by broth microdilution method; type: functional, organism-based
[6] = target: Glycogen synthase kinase-3 beta (Homo sapiens, UniProt P49841); experiment: Inhibition of N-terminal His6-tagged human recombinant GSK3beta expressed in baculovirus-infected Sf21 cells incubated for 60 mins in presence of ATP by ADP-glo analysis
Chain of Glycogen synthase kinase-3 beta (P49841 whole entry): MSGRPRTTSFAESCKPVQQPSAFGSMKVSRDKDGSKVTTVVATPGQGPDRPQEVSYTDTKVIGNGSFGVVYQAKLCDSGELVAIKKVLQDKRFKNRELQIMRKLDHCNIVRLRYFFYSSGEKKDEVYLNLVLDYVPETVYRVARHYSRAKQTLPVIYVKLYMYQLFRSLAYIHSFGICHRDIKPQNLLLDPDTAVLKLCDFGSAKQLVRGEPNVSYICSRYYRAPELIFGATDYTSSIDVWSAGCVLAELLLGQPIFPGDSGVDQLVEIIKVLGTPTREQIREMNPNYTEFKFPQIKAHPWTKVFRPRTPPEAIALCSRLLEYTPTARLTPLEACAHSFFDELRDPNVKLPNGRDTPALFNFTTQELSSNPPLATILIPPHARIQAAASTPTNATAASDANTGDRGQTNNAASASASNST

[7] = Cytotoxicity against rat NRK-52E cells assessed as inhibition of cell growth incubated for 24 hrs by CCK-8 assay; type: toxicity, cell-based

Chain of Delta-type opioid receptor (P41143 whole entry, the tested form may be a part, canonical isoform): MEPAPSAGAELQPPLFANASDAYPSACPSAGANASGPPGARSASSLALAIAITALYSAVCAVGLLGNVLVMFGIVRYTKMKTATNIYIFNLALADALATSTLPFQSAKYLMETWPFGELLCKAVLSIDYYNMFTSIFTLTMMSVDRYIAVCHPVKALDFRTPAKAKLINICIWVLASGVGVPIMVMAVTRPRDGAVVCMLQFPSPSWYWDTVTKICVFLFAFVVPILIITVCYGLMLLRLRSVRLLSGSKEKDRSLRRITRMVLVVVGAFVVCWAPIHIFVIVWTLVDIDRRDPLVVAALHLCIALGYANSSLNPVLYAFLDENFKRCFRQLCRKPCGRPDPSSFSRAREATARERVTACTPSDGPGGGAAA

Q: With `N=C(N)NCCCC1=NCCc2cc(O)c(O)cc21` as the compound, how does the Ki [1] read?
A: 485 nM

Q: Which results are given for `O=C(O)c1[nH]c2c(=O)oc3cc(O)c(O)cc3c2c1-c1ccc(O)c(O)c1`?
A: IC50 [2]: 2300 nM; IC50 (Bacillus subtilis [3]): 3800 nM; IC50 [4]: 10900 nM; IC50 (Bacillus subtilis [5]): 3000 nM; IC50 [6]: 1600 nM

Q: For `CC(=O)NCCc1ccc2c(c1)O[C@]1(NC(C)=O)[C@H](O2)c2cc(O)c(O)cc2[C@@H](c2ccc(O)c(O)c2)[C@@H]1NC(C)=O`, which IC50 at 24 h [7] is on record?
A: 30000 nM
